The text below walks through data of US20120010235A1, “N-SUBSTITUTED PYRROLIDINES” (priority 2010, published 2012).

Counter-ions that a name gives are not always drawn.

Broadly, the IC50 is the concentration that inhibits the measured activity by half.

The experiment has as its system SJSA, an osteocarcinoma cell line. The experiment is described as follows: antiproliferative activity assay (tetrazolium dye, MTT) in SJSA cells. Particulars: cell-based MTT assay, inhibition of cell proliferation, read-out: TT IC50. The protocol:
The pharmacological properties of the compounds of this invention may be confirmed by a number of pharmacological assays. The exemplified antiproliferative activity assay which follows has been carried out with the compounds according to the invention.
Cell proliferation was evaluated by the tetrazolium dye assay according to the procedure of Denizot and Lang (Denizot, F. and Lang, R. (1986) Rapid colorimetric assay for cell growth and survival. Modification to the terrazolium dye procedure giving improved sensitivity and reliability. J. Immunol. Methods 89, 271-277). The cell line used was SJSA, an osteocarcinoma cell line obtained from the American Type Cell Culture Collection (ATCC; Rockville, Md.). The cells were grown in PRMI with 10% FBS (Fetal Bovine Serum, Invitrogen).
Cells were plated at the appropriate seeding density to give logarithmic growth over the course of the assay in a 96-well tissue culture plate. Plates were incubated overnight at 37° C. in a humidified incubator with 5% CO2. The next day, test compounds were serially diluted 1:3 in the appropriate medium containing 3% DMSO. One-tenth final volume of each dilution was added […] to the plates containing cells. The same volume of 3% DMSO in medium was added to a row of control wells. Thus, the final concentration of DMSO in all wells was 0.3%. The plates were returned to the incubator, and at set time points (determined by their growth curves) plates were analyzed as follows: 3-(4,5-dimethylthiazole-2-yl)-2,5-diphenyl-2H-tetrazolium bromide (thiazolyl blue; MTT; Sigma) was added to each well to yield a final concentration of 1 mg/ml. Plates were returned to the incubator for 2.5 hours. The MTT-containing medium was removed and the resulting formazan metabolite was solubilized in 100% ethanol with shaking for 15 minutes at room temperature. Absorbances were read in a microtiter plate reader at a wavelength of 570 nm with a 650 nm reference. Percent inhibition (% INH) was calculated by subtracting the blank from all wells, then subtracting the ratio of the average absorbance of each triplicate (SAVE) by the average of the controls (CAVE) from 1.00. The final product was then multiplied by 100 (% INH=(1.00−SAVE/CAVE)×100). The concentration at which 50% inhibition (IC50) of cell proliferation is obtained was determined from the linear regression of a plot of the logarithm of the concentration versus percent inhibition.
In general terms: Formazan colour is commonly taken as a measure of viable cells.
Consider `CCN1[C@@H](CC(C)(C)C)[C@](C#N)(c2ccc(Cl)cc2F)[C@@H](c2cccc(Cl)c2F)[C@@H]1C(=O)Nc1ccc(C(=O)O)cc1` (racemic) [Example 33, 4-{[(2R,3S,4R,5S)-3-(3-chloro-2-fluoro-phenyl)-4-(4-chloro-2-fluoro-phenyl)-4-cyano-5-(2,2-dimethyl-propyl)-1-ethyl-pyrrolidine-2-carbonyl]-amino}benzoic acid], for which the 50% inhibitory concentration (IC50) came out at 1310 nM.

As for `CC(C)(C)C[C@@H]1N(CC2CC2)[C@@H](C(=O)Nc2ccc(C(=O)O)cc2)[C@H](c2cccc(Cl)c2F)[C@@]1(C#N)c1ccc(Cl)cc1F` (racemic) [Example 34, rac-4-{[(2R,3S,4R,5S)-3-(3-chloro-2-fluoro-phenyl)-4-(4-chloro-2-fluoro-phenyl)-4-cyano-1-cyclopropylmethyl-5-(2,2-dimethyl-propyl)-pyrrolidine-2-carbonyl]-amino}-benzoic acid], the half-maximal inhibitory concentration (IC50) came to 300 nM.

As to `CC(C)(C)C[C@@H]1N(CCC2CCCCC2)[C@@H](C(=O)Nc2ccc(C(=O)O)cc2)[C@H](c2cccc(Cl)c2F)[C@@]1(C#N)c1ccc(Cl)cc1F` (racemic) [Example 37, rac-4-{[(2R,3S,4R,5S)-3-(3-chloro-2-fluoro-phenyl)-4-(4-chloro-2-fluoro-phenyl)-4-cyano-1-(2-cyclohexyl-ethyl)-5-(2,2-dimethyl-propyl)-pyrrolidine-2-carbonyl]-amino}-benzoic acid], the IC50 was 110 nM.

As for `COc1cc(C(=O)O)ccc1NC(=O)[C@H]1[C@H](c2cccc(Cl)c2F)[C@@](C#N)(c2ccc(Cl)cc2F)[C@H](CC(C)(C)C)N1C` (racemic) [Example 39, rac-4-{[(2R,3S,4R,5S)-3-(3-chloro-2-fluoro-phenyl)-4-(4-chloro-2-fluoro-phenyl)-4-cyano-5-(2,2-dimethyl-propyl)-1-methyl-pyrrolidine-2-carbonyl]-amino}-3-methoxy-benzoic acid], the half-inhibitory concentration (IC50) turned out to be 40 nM.

As for `COc1cc(C(=O)O)ccc1NC(=O)[C@H]1[C@H](c2cccc(Cl)c2F)[C@@](C#N)(c2ccc(Cl)cc2F)[C@H](CC(C)(C)C)N1CC1CC1` (racemic) [Example 40, rac-4-{[(2R,3S,4R,5S)-3-(3-chloro-2-fluoro-phenyl)-4-(4-chloro-2-fluoro-phenyl)-4-cyano-1-cyclopropylmethyl-5-(2,2-dimethyl-propyl)-pyrrolidine-2-carbonyl]-amino}-3-methoxy-benzoic acid], the IC50 was found to be 130 nM.

For the compound `CCN1[C@@H](CC(C)(C)C)[C@](C#N)(c2ccc(Cl)cc2F)[C@@H](c2cccc(Cl)c2F)[C@@H]1C(=O)Nc1ccc(C(=O)O)c(OC)c1` (racemic) [Example 41, 4-{[(2R,3S,4R,5S)-3-(3-chloro-2-fluoro-phenyl)-4-(4-chloro-2-fluoro-phenyl)-4-cyano-5-(2,2-dimethyl-propyl)-1-ethyl-pyrrolidine-2-carbonyl]-amino}-2-methoxy-benzoic acid], the half-inhibitory concentration (IC50) is 1230 nM.

With `COc1cc(NC(=O)[C@H]2[C@H](c3cccc(Cl)c3F)[C@@](C#N)(c3ccc(Cl)cc3F)[C@H](CC(C)(C)C)N2C)ccc1C(=O)O` (racemic) [Example 42, 4-{[(2R,3S,4R,5S)-3-(3-chloro-2-fluoro-phenyl)-4-(4-chloro-2-fluoro-phenyl)-4-cyano-5-(2,2-dimethyl-propyl)-1-methyl-pyrrolidine-2-carbonyl]-amino}-2-methoxy-benzoic acid], the IC50 amounted to 1360 nM.

Take `CCCCN1[C@@H](CC(C)(C)C)[C@](C#N)(c2ccc(Cl)cc2F)[C@@H](c2cccc(Cl)c2F)[C@@H]1C(=O)Nc1ccc(C(=O)O)c(OC)c1` (racemic) [Example 43, 4-{[(2R,3S,4R,5S)-1-butyl-3-(3-chloro-2-fluoro-phenyl)-4-(4-chloro-2-fluoro-phenyl)-4-cyano-5-(2,2-dimethyl-propyl)-pyrrolidine-2-carbonyl]-amino}-2-methoxy-benzoic acid]: the IC50 amounted to 1140 nM.

Consider `CCN1[C@@H](CC(C)(C)C)[C@](C#N)(c2ccc(Cl)cc2F)[C@@H](c2cccc(Cl)c2F)[C@@H]1C(=O)Nc1ccc(C(=O)O)cc1OC` (racemic) [Example 44, rac-4-{[(2R,3S,4R,5S)-3-(3-chloro-2-fluoro-phenyl)-4-(4-chloro-2-fluoro-phenyl)-4-cyano-5-(2,2-dimethyl-propyl)-1-ethyl-pyrrolidine-2-carbonyl]-amino}-3-methoxy-benzoic acid], for which the IC50 came out at 220 nM.

For the compound `COc1cc(NC(=O)[C@H]2[C@H](c3cccc(Cl)c3F)[C@@](C#N)(c3ccc(Cl)cc3F)[C@H](CC(C)(C)C)N2CCC(C)C)ccc1C(=O)O` (racemic) [Example 45, 4-{[(2R,3S,4R,5S)-3-(3-chloro-2-fluoro-phenyl)-4-(4-chloro-2-fluoro-phenyl)-4-cyano-5-(2,2-dimethyl-propyl)-1-(3-methyl-butyl)-pyrrolidine-2-carbonyl]-amino}-2-methoxy-benzoic acid], the IC50 worked out at 420 nM.

Consider `C=CCCCN1[C@@H](CC(C)(C)C)[C@](C#N)(c2ccc(Cl)cc2F)[C@@H](c2cccc(Cl)c2F)[C@@H]1C(=O)Nc1ccc(C(=O)O)c(OC)c1` (racemic) [Example 47, 4-{[(2R,3S,4R,5S)-3-(3-chloro-2-fluoro-phenyl)-4-(4-chloro-2-fluoro-phenyl)-4-cyano-5-(2,2-dimethyl-propyl)-1-pent-4-enyl-pyrrolidine-2-carbonyl]-amino}-2-methoxy-benzoic acid], for which the IC50 is 620 nM.

Turning to `COc1cc(NC(=O)[C@H]2[C@H](c3cccc(Cl)c3F)[C@@](C#N)(c3ccc(Cl)cc3F)[C@H](CC(C)(C)C)N2CCC2CCCCC2)ccc1C(=O)O` (racemic) [Example 48, 4-{[(2R,3S,4R,5S)-3-(3-chloro-2-fluoro-phenyl)-4-(4-chloro-2-fluoro-phenyl)-4-cyano-1-(2-cyclohexyl-ethyl)-5-(2,2-dimethyl-propyl)-pyrrolidine-2-carbonyl]-amino}-2-methoxy-benzoic acid trifluoroacetate salt], the concentration for half-maximal inhibition (IC50) stood at 430 nM.

Take `CCCN1[C@@H](CC(C)(C)C)[C@](C#N)(c2ccc(Cl)cc2F)[C@@H](c2cccc(Cl)c2F)[C@@H]1C(=O)Nc1ccc(C(=O)O)c(OC)c1` (racemic) [Example 49, 4-{[(2R,3S,4R,5S)-3-(3-chloro-2-fluoro-phenyl)-4-(4-chloro-2-fluoro-phenyl)-4-cyano-5-(2,2-dimethyl-propyl)-1-propyl-pyrrolidine-2-carbonyl]-amino}-2-methoxy-benzoic acid]: the IC50 is 1490 nM.

In the case of `COc1cc(C(N)=O)ccc1NC(=O)[C@H]1[C@H](c2cccc(Cl)c2F)[C@@](C#N)(c2ccc(Cl)cc2F)[C@H](CC(C)(C)C)N1C` (racemic) [Example 50, rac-(2R,3S,4R,5S)-3-(3-chloro-2-fluoro-phenyl)-4-(4-chloro-2-fluoro-phenyl)-4-cyano-5-(2,2-dimethyl-propyl)-1-methyl-pyrrolidine-2-carboxylic acid (4-carbamoyl-2-methoxy-phenyl)-amide], the IC50 stood at 370 nM.

On to `CNC(=O)c1ccc(NC(=O)[C@H]2[C@H](c3cccc(Cl)c3F)[C@@](C#N)(c3ccc(Cl)cc3F)[C@H](CC(C)(C)C)N2C)c(OC)c1` (racemic) [Example 51, rac-(2R,3S,4R,5S)-3-(3-chloro-2-fluoro-phenyl)-4-(4-chloro-2-fluoro-phenyl)-4-cyano-5-(2,2-dimethyl-propyl)-1-methyl-pyrrolidine-2-carboxylic acid (2-methoxy-4-methylcarbamoyl-phenyl)-amide], for which the IC50 came to 460 nM.

With `COc1cc(C(=O)O)ccc1NC(=O)[C@H]1[C@H](c2cccc(Cl)c2F)[C@@](C#N)(c2ccc(Cl)cc2F)[C@H](CC(C)(C)C)N1CCCCCO` (racemic) [Example 56, rac-4-{[(2R,3S,4R,5S)-3-(3-chloro-2-fluoro-phenyl)-4-(4-chloro-2-fluoro-phenyl)-4-cyano-5-(2,2-dimethyl-propyl)-1-(5-hydroxy-pentyl)-pyrrolidine-2-carbonyl]-amino}-3-methoxy-benzoic acid], the IC50 is 30 nM.

For the compound `CN1[C@@H](CC(C)(C)C)[C@](C#N)(c2ccc(Cl)cc2F)[C@@H](c2cccc(Cl)c2F)[C@@H]1C(=O)Nc1ccc(C(=O)O)cc1` [Example 25, 4-{[(2R,3S,4R,5S)-3-(3-chloro-2-fluoro-phenyl)-4-(4-chloro-2-fluoro-phenyl)-4-cyano-5-(2,2-dimethyl-propyl)-1-methyl-pyrrolidine-2-carbonyl]-amino}-benzoic acid], the IC50 came to 390 nM.

Turning to `CN1[C@@H](CC(C)(C)C)[C@](C#N)(c2ccc(Cl)cc2F)[C@@H](c2cccc(Cl)c2F)[C@@H]1C(=O)Nc1ccc(C(=O)O)c(F)c1` [Example 26, 4-{[(2R,3S,4R,5S)-3-(3-chloro-2-fluoro-phenyl)-4-(4-chloro-2-fluoro-phenyl)-4-cyano-5-(2,2-dimethyl-propyl)-1-methyl-pyrrolidine-2-carbonyl]-amino}-2-fluoro-benzoic acid trifluoroacetate salt], the IC50 was 320 nM.
